2 molecules from patent US11000033B2, “Ketone or oxime compound, and herbicide” (NISSAN CHEMICAL CORPORATION, priority 2014, dated 2021) can be followed below.

Holding throughout (type): in vivo
Series [1] concerns Digitaria ciliaris. Description: Test Example 4: herbicidal effect by soil treatment (symbol F). Conditions: application herbicide amount 320 g/ha. In a few lines:
(§1)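 Seeds were sown in sterilized diluvial soil, covered with about 1.5 cm of soil, and the soil surface was sprayed with a water-diluted emulsion of the compound at a predetermined rate. Plants grew in a greenhouse at 25° C. to 30° C.; effects were scored visually 3 weeks after application.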

The next series relates to Lolium multiflorum Lam. Description: Test Example 4: herbicidal effect by soil treatment (symbol K). The settings on record: application herbicide amount 320 g/ha. An outline of the steps:
as §1

The next series relates to Apera spica-venti. As to the kind of experiment: Test Example 5: herbicidal effect by foliage application, plastic box (symbol L). The settings on record: 320 g/ha, 3 weeks after application. An outline of the steps: (§2)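 Leaf-applied emulsion, water-diluted to a preset herbicide dose, on two-week-old seedlings raised in a 25° C. to 30° C. greenhouse; injury rated at 3 weeks using earlier criteria.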

The subject of another series is wheat. As to the kind of experiment: Test Example 4: effect on crop by soil treatment (symbol e). The settings on record: application herbicide amount 320 g/ha. An outline of the steps: (§3)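 Crop seed is sown in spots together with several weed species in a box of sterilized diluvial soil. It is covered by about 1.5 cm of soil and kept in a greenhouse held between 25° C. and 30° C.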

For series [2], the system named is directly sowed rice plant. As to the kind of experiment: Test Example 3: effect on crop by foliage application, Wagner pot (symbol b). The settings on record: application herbicide amount 320 g/ha. An outline of the steps: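 Plants are raised from seed in flooded paddy conditions: water stands 0.1–0.5 cm over alluvial soil, and the pot is kept in a greenhouse at 25–30 °C. Species sown are barnyardgrass (E. crus-galli var. crus-galli), Leptochloa chinensis, Cyperus difformis and rice.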

The next series has as its system corn. Description: Test Example 4: effect on crop by soil treatment (symbol c). Conditions: application herbicide amount 320 g/ha. In a few lines: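 Diluvial soil (sterilized) in boxes; seeds placed spot-wise alongside weed species; ~1.5 cm covering soil. Greenhouse, 25–30° C.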
The subject of the next series is Alopecurus myosuroides. As to the kind of experiment: Test Example 5: herbicidal effect by foliage application, plastic box (symbol J). The settings on record: 320 g/ha, 3 weeks after application. An outline of the steps:
as §2

For a further series, the system named is Abutilon theophrasti. Description: Test Example 4: herbicidal effect by soil treatment (symbol M). The settings on record: application herbicide amount 320 g/ha. An outline of the steps: as §1
The next series concerns rice. Description: Test Example 4: effect on crop by soil treatment (symbol b). The settings on record: application herbicide amount 320 g/ha. An outline of the steps: as §3
The test system of series [3] is Echinochloa oryzacola Vasing. As to the kind of experiment: Test Example 2: herbicidal activity, application during weed generation in submerged conditions (symbol A). The settings on record: Table 23; application herbicide amount 320 g/ha; grade 0-5 by criteria of Test Example 1. An outline of the steps: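 Each pot contained alluvial soil under 4 cm of water with seeds of all three weeds sown together. Following growth at 25° C. to 30° C. to the one- to two-leaf stage, the floodwater received diluted emulsion at a predetermined amount; visual assessment followed at 3 weeks.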

Series [4] deals with Echinochloa crus-galli var. crus-galli. Description: Test Example 4: herbicidal effect by soil treatment (symbol H). The settings on record: application herbicide amount 320 g/ha. An outline of the steps: as §1
The subject of a further series is Setaria viridis. As to the kind of experiment: Test Example 5: herbicidal effect by foliage application, plastic box (symbol G). The settings on record: 320 g/ha, 3 weeks after application. An outline of the steps: as §2
In a further series the test system is Cyperus difformis. Description: Test Example 3: herbicidal effect by foliage application, Wagner pot (symbol E). The settings on record: application herbicide amount 320 g/ha. In a few lines:
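Seeds sown in alluvial soil kept under 0.1–0.5 cm water, greenhouse 25–30 °C; 14 d growth. Leaves treated by small sprayer with water-diluted emulsion at a predetermined rate. Effect graded by set scale, 3 weeks.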

Series [5] has as its system Digitaria ciliaris. Description: Test Example 5: herbicidal effect by foliage application, plastic box (symbol F). The settings on record: 320 g/ha, 3 weeks after application. An outline of the steps: as §2
The next series relates to Veronica persica. Description: Test Example 5: herbicidal effect by foliage application, plastic box (symbol R). The settings on record: 320 g/ha, 3 weeks after application. An outline of the steps: as §2
A further series has as its system beet. As to the kind of experiment: Test Example 5: effect on crop by foliage application, plastic box (symbol f). The settings on record: 320 g/ha, 3 weeks after application. In a few lines: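 A greenhouse held between 25° C. and 30° C. was used to grow plants sown spot-wise, beneath ~1.5 cm of soil, in boxes of sterilized diluvial soil.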

Consider `CC(CC1CC(O)=C(c2c(C)cc(C)cc2C)C1=O)=NOCc1ccccc1F` (stereo not drawn) [1-026], for which the “F (Digitaria ciliaris) herbicidal effect grade” value with Digitaria ciliaris [1] is reported as 5 (Herbicidal ratio of 90% or more (almost completely withered)). The “K (Lolium multiflorum Lam.) herbicidal effect grade” value with Lolium multiflorum Lam. is listed as 5 (Herbicidal ratio of 90% or more (almost completely withered)). Besides, in the series with Apera spica-venti, the “L: Apera spica-venti, herbicidal effect grade” value was 5 (Herbicidal ratio of 90% or more (almost completely withered)). Further, the “e (wheat) effect on crop grade” value with wheat was 2 (Herbicidal ratio of 20% or higher and lower than 40%). For the same molecule, in [2], the “effect on crop b (directly sowed rice plant), grade 0-5” value is 5 (Herbicidal ratio of 90% or more (almost completely withered)). Besides, the “c (corn) effect on crop grade” value in the series on corn is listed as 0 (Herbicidal ratio of 5% or lower (almost no effect)). Also, the “J: Alopecurus myosuroides, herbicidal effect grade” value in the series with Alopecurus myosuroides is on record as 5 (Herbicidal ratio of 90% or more (almost completely withered)). The “M (Abutilon theophrasti) herbicidal effect grade” value in the series on Abutilon theophrasti is listed as 0 (Herbicidal ratio of 5% or lower (almost no effect)). In the series with rice, the “b (directly sowed rice plant) effect on crop grade” value was 4 (Herbicidal ratio of 70% or higher and lower than 90%). The “Herbicidal effect grade, A: Echinochloa oryzacola Vasing.” value in [3] is listed as 5 (Herbicidal ratio of 90% or more (almost completely withered)). Besides, the “H (Echinochloa crus-galli var. crus-galli) herbicidal effect grade” value in series [4] was 5 (Herbicidal ratio of 90% or more (almost completely withered)). The “G: Setaria viridis, herbicidal effect grade” value with Setaria viridis was 5 (Herbicidal ratio of 90% or more (almost completely withered)). Besides, the “herbicidal effect on E, grade 0-5” value in the series with Cyperus difformis is recorded as 5 (Herbicidal ratio of 90% or more (almost completely withered)). Further, the “F: Digitaria ciliaris, herbicidal effect grade” value in the series on Digitaria ciliaris [5] is recorded as 5 (Herbicidal ratio of 90% or more (almost completely withered)).
On to `CON=C(C)CC1CC(OC(=O)COc2ccc(F)cc2)=C(c2c(C)cc(C)cc2C)C1=O` (stereo not drawn) [1-073], for which, in the series on Digitaria ciliaris [1], the “F (Digitaria ciliaris) herbicidal effect grade” value is listed as 5 (Herbicidal ratio of 90% or more (almost completely withered)). Moreover, the “K (Lolium multiflorum Lam.) herbicidal effect grade” value in the series on Lolium multiflorum Lam. is reported as 5 (Herbicidal ratio of 90% or more (almost completely withered)). In addition, in the series with Apera spica-venti, the “L: Apera spica-venti, herbicidal effect (criteria 0-5)” value is listed as 5 (Herbicidal ratio of 90% or more (almost completely withered)). In the series with wheat, the “e (wheat) effect on crop grade” value is 4 (Herbicidal ratio of 70% or higher and lower than 90%). The “effect on crop b (directly sowed rice plant), grade 0-5” value in [2] was 5 (Herbicidal ratio of 90% or more (almost completely withered)). Further, the “R: Veronica persica, herbicidal effect (criteria 0-5)” value in the series on Veronica persica was 3 (Herbicidal ratio of 40% or higher and lower than 70%). In the series with corn, the “c (corn) effect on crop grade” value is 4 (Herbicidal ratio of 70% or higher and lower than 90%). Moreover, the “J: Alopecurus myosuroides, herbicidal effect (criteria 0-5)” value in the series on Alopecurus myosuroides is reported as 5 (Herbicidal ratio of 90% or more (almost completely withered)). Further, the “M (Abutilon theophrasti) herbicidal effect grade” value in the series on Abutilon theophrasti is 5 (Herbicidal ratio of 90% or more (almost completely withered)). Also, the “b (directly sowed rice plant) effect on crop grade” value in the series on rice is on record as 5 (Herbicidal ratio of 90% or more (almost completely withered)). For the same molecule, the “Herbicidal effect grade, A: Echinochloa oryzacola Vasing.” value in series [3] was 5 (Herbicidal ratio of 90% or more (almost completely withered)). Further, in series [4], the “H (Echinochloa crus-galli var. crus-galli) herbicidal effect grade” value is 5 (Herbicidal ratio of 90% or more (almost completely withered)). In addition, the “G: Setaria viridis, herbicidal effect (criteria 0-5)” value with Setaria viridis is given as 5 (Herbicidal ratio of 90% or more (almost completely withered)). Moreover, the “f: beet, effect on crop (criteria 0-5)” value in the series on beet is 1 (Herbicidal ratio of 5% or higher and lower than 20%). Besides, the “herbicidal effect on E, grade 0-5” value in the series on Cyperus difformis is recorded as 5 (Herbicidal ratio of 90% or more (almost completely withered)). Also, the “F: Digitaria ciliaris, herbicidal effect (criteria 0-5)” value in the series with Digitaria ciliaris [5] is listed as 5 (Herbicidal ratio of 90% or more (almost completely withered)).
